What was measured:
[1] = Brain compound levels in the CNS side-effect study (Figure 2H); type: in vivo; settings: male, C57Bl/6J, mouse, in vivo; BNS808 PO (1 or 10 mg/kg, dose not stated), 1 h after administration
Protocol: The ability of BNS808 and rimonabant (as a positive control) to induce centrally mediated hyperactivity in mice (A–C). Wild-type, male, C57Bl/6J mice received a single dose of rimonabant (10 mg/kg, PO), BNS808 (1 or 10 mg/kg, PO) or vehicle, and the Promethion High-Definition Behavioral Phenotyping System monitored the activity profile. In addition, the ability of BNS808 and rimonabant (as a positive control) to inhibit the hypomotility induced by a CB1R receptor agonist (HU210; 30 μg/kg, IP) was tested in wild-type, male, C57Bl/6J mice which received a single dose of rimonabant (10 mg/kg, PO) or BNS808 (1 or 10 mg/kg, PO) or vehicle (D–F). […] Data represent the mean ± SEM from 4 to 8 mice per group. *P < 0.05 vs Vehicle-treated control. ^#P < 0.05 vs rimonabant.

TA100 = assay: Mini-Ames assay, strain TA100; type: cell-based; settings: for F value: fold vs DMSO; for Growth of lawn: replicates 1-3
Protocol: Mini Am es assay. To conduct the assay, top agar was melted with a microwave and maintained at a temper atur e ≥47 °C in a water bath. T he assay was performed using a heat block set to 45 °C ± 2 °C. 12 × 75 mm test tubes were prepared in duplicates. For each concentration, the following components were added sequentially to a test tube:
[…] The mixture was vortexed and then dispensed into w ells using a dispo sable pipette. The plates wer e then incubated at 37±2 °C for approximately 48 to 72 hours.
BBbbbb BBBBbbbb BBBB = AAAAbbbbbbAAbb nnnnnnbbbbbb bboo bbbbAAbbbbbbbbnnbbbb oobbbb bbbb eeee dd bbbbbb AAbbbbnn gg AAAAbbbbbbAAbb nnnnnnbbbbbb bbBB bbbbAAbbbbbbbbnnbbbb BBbbbb DDDDDDDD nn bbAAbbbbaaAAbb AAbbbbnnaa The mutagenicity of the compound was determined by evaluating the number of revertant colonies in strains TA98 and TA100. A compound was […]
related and if the fold increase in revertants (F) was equal to or greater than 2 for […]
background lawn growth on the agar plates. A scoring system ranging from 0 to 4 […]
complete cytotoxicity, while scores 1, 2, and 3 represented 25%, 50%, and 75% growth, respectively. A score of 4 signified full '100%' growth. The background […]
background lawn and required magnification for visualization. […]

Structure (SMILES): O=S(=O)(NC1CCCOc2c1nn(-c1ccccc1Cl)c2-c1ccc(Cl)cc1)c1ccc(Cl)cc1 (stereo not drawn) [BNS808, 4-chloro-N-[2-(2-chlorophenyl)-3-(4-chlorophenyl)-5,6,7,8-tetrahydrooxepino[3,2-c]pyrazol-8-yl]benzenesulfonamide]
- concentration at 1 h [1]: 13 ng/g
- Number of revertants MEAN (TA100; TA100, +S9, 31.25 μg/well): 40.67
- solubility (TA100; TA100, +S9, 31.25 μg/well): P0
- F value (TA100; TA100, +S9, 31.25 μg/well): 1.03
- Growth of lawn (TA100; TA100, +S9, 31.25 μg/well): 4 (A score of 4 signified full '100%' growth)
- Number of revertants MEAN (TA100; TA100, +S9, 62.5 μg/well): 34.67
- solubility (TA100; TA100, +S9, 62.5 μg/well): P0
- F value (TA100; TA100, +S9, 62.5 μg/well): 0.87
- Growth of lawn (TA100; TA100, +S9, 62.5 μg/well): 4 (A score of 4 signified full '100%' growth)
- Number of revertants MEAN (TA100; TA100, +S9, 125 μg/well): 30.00
- solubility (TA100; TA100, +S9, 125 μg/well): P0
- F value (TA100; TA100, +S9, 125 μg/well): 0.76
- Growth of lawn (TA100; TA100, +S9, 125 μg/well): 4 (A score of 4 signified full '100%' growth)
- Number of revertants MEAN (TA100; TA100, +S9, 250 μg/well): 29.33
- solubility (TA100; TA100, +S9, 250 μg/well): P1 (0~20% growth of crystals)
- F value (TA100; TA100, +S9, 250 μg/well): 0.74
- Growth of lawn (TA100; TA100, +S9, 250 μg/well): 4 (A score of 4 signified full '100%' growth)
- Number of revertants MEAN (TA100; TA100, +S9, 500 μg/well): 19.33
- solubility (TA100; TA100, +S9, 500 μg/well): P2 (20%~60% growth of crystals)
- F value (TA100; TA100, +S9, 500 μg/well): 0.49
- Growth of lawn (TA100; TA100, +S9, 500 μg/well): 4 (A score of 4 signified full '100%' growth)
- Number of revertants MEAN (TA100; TA100, +S9, 1000 μg/well): 16.67
- solubility (TA100; TA100, +S9, 1000 μg/well): P3 (60%~100% growth of crystals)
- F value (TA100; TA100, +S9, 1000 μg/well): 0.42
- Growth of lawn (TA100; TA100, +S9, 1000 μg/well): 4 (A score of 4 signified full '100%' growth)
- Number of revertants MEAN (TA100; TA100, -S9, 31.25 μg/well): 29.00
- solubility (TA100; TA100, -S9, 31.25 μg/well): P0
- F value (TA100; TA100, -S9, 31.25 μg/well): 0.97
- Growth of lawn (TA100; TA100, -S9, 31.25 μg/well): 4 (A score of 4 signified full '100%' growth)
- Number of revertants MEAN (TA100; TA100, -S9, 62.5 μg/well): 23.67
- solubility (TA100; TA100, -S9, 62.5 μg/well): P0
- F value (TA100; TA100, -S9, 62.5 μg/well): 0.79
- Growth of lawn (TA100; TA100, -S9, 62.5 μg/well): 4 (A score of 4 signified full '100%' growth)
- Number of revertants MEAN (TA100; TA100, -S9, 125 μg/well): 22.67
- solubility (TA100; TA100, -S9, 125 μg/well): P0
- F value (TA100; TA100, -S9, 125 μg/well): 0.76
- Growth of lawn (TA100; TA100, -S9, 125 μg/well): 4 (A score of 4 signified full '100%' growth)
- Number of revertants MEAN (TA100; TA100, -S9, 250 μg/well): 23.00
- solubility (TA100; TA100, -S9, 250 μg/well): P1 (0~20% growth of crystals)
- F value (TA100; TA100, -S9, 250 μg/well): 0.77
- Growth of lawn (TA100; TA100, -S9, 250 μg/well): 4 (A score of 4 signified full '100%' growth)
- Number of revertants MEAN (TA100; TA100, -S9, 500 μg/well): 18.67
- solubility (TA100; TA100, -S9, 500 μg/well): P2 (20%~60% growth of crystals)
- F value (TA100; TA100, -S9, 500 μg/well): 0.62
- Growth of lawn (TA100; TA100, -S9, 500 μg/well): 4 (A score of 4 signified full '100%' growth)
